“And” between values parts separate entries of the source, which are not always exact repeats. Equal entries are not always repeated.
Legend:
Assay in all cases: cells
ETK-1 = format: functional, cell-based, Homo sapiens;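 also: growth inhibition of human ETK-1 cells, read out with a cell viability assay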
Description: SANGER: Inhibition of human ETK-1 cell growth in a cell viability assay.

SK-OV-3 = format: functional, cell-based, Homo sapiens;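 also: growth inhibition of SK-OV-3 human cells, read out with a cell viability assay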
Description: SANGER: Inhibition of human SK-OV-3 cell growth in a cell viability assay.

COLO-829 = format: functional, cell-based, Homo sapiens
Description: SANGER: Inhibition of human COLO-829 cell growth in a cell viability assay.

EFO-27 = format: functional, cell-based, Homo sapiens;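 also: growth inhibition of EFO-27 cells, read out with a cell viability assay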
Description: SANGER: Inhibition of human EFO-27 cell growth in a cell viability assay.

Ramos-2G6-4C10 = format: functional, cell-based; conditions: Homo sapiens;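 also: growth inhibition of the cell line, measured by a cell viability read-out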
Description: SANGER: Inhibition of human Ramos-2G6-4C10 cell growth in a cell viability assay.

Ca-Ski = format: functional, cell-based; conditions: Homo sapiens;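 also: cell viability assay measuring inhibition of Ca-Ski cell growth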
Description: SANGER: Inhibition of human Ca-Ski cell growth in a cell viability assay.

HCC2157 = format: functional, cell-based; conditions: Homo sapiens;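 also: growth inhibition of the cancer cell line, read out as cell viability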
Description: SANGER: Inhibition of human HCC2157 cell growth in a cell viability assay.

HCC70 = format: functional, cell-based, Homo sapiens;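 also: cell viability assay measuring how strongly the compound suppresses proliferation of HCC70 cells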
Description: SANGER: Inhibition of human HCC70 cell growth in a cell viability assay.

TE-6 = format: functional, cell-based, Homo sapiens;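 also: growth inhibition of TE-6 cells, read out with a cell viability assay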
Description: SANGER: Inhibition of human TE-6 cell growth in a cell viability assay.

A3-KAW = format: functional, cell-based; conditions: Homo sapiens;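 also: growth inhibition of human A3-KAW cells, read out with a cell viability assay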
Description: SANGER: Inhibition of human A3-KAW cell growth in a cell viability assay.

D283 Med = format: functional, cell-based, Homo sapiens
Description: SANGER: Inhibition of human D-283MED cell growth in a cell viability assay.

BHT-101 = format: functional, cell-based, Homo sapiens
Description: SANGER: Inhibition of human BHT-101 cell growth in a cell viability assay.

DMS-273 = format: functional, cell-based, Homo sapiens
Description: SANGER: Inhibition of human DMS-273 cell growth in a cell viability assay.

VMRC-RCZ = format: functional, cell-based; conditions: Homo sapiens;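 also: growth inhibition measured with a cell viability assay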
Description: SANGER: Inhibition of human VMRC-RCZ cell growth in a cell viability assay.

LK-2 = format: functional, cell-based, Homo sapiens;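 also: growth inhibition of LK-2 cells, read out with a viability assay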
Description: SANGER: Inhibition of human LK-2 cell growth in a cell viability assay.

SCC-4 = format: functional, cell-based, Homo sapiens;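 also: growth inhibition of human SCC-4 cells, read out as cell viability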
Description: SANGER: Inhibition of human SCC-4 cell growth in a cell viability assay.

WM-115 = format: functional, cell-based, Homo sapiens
Description: SANGER: Inhibition of human WM-115 cell growth in a cell viability assay.

KYSE-450 = format: functional, cell-based; conditions: Homo sapiens;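 also: cell growth inhibition measured by a viability assay in human KYSE-450 cells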
Description: SANGER: Inhibition of human KYSE-450 cell growth in a cell viability assay.

KOSC-2 = format: functional, cell-based, Homo sapiens;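 also: growth inhibition of KOSC-2 cells, read out by a cell viability assay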
Description: SANGER: Inhibition of human KOSC-2 cell growth in a cell viability assay.

NCI-H520 = format: functional, cell-based, Homo sapiens;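 also: growth inhibition of NCI-H520 cells, measured by a cell viability assay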
Description: SANGER: Inhibition of human NCI-H520 cell growth in a cell viability assay.

NCI-H2126 = format: functional, cell-based, Homo sapiens;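 also: growth inhibition of the cancer cell line, determined with a cell viability readout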
Description: SANGER: Inhibition of human NCI-H2126 cell growth in a cell viability assay.

HH = format: functional, cell-based; conditions: Homo sapiens
Description: SANGER: Inhibition of human HH cell growth in a cell viability assay.

NH-12 = format: functional, cell-based, Homo sapiens;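 also: growth inhibition of NH-12 cells, read out with a cell viability assay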
Description: SANGER: Inhibition of human NH-12 cell growth in a cell viability assay.

SAS = format: functional, cell-based, Homo sapiens;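 also: growth inhibition of SAS cells, read out with a cell viability assay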
Description: SANGER: Inhibition of human SAS cell growth in a cell viability assay.

NCI-H1563 = format: functional, cell-based, Homo sapiens;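 also: growth inhibition of human NCI-H1563 cells, read out with a cell viability assay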
Description: SANGER: Inhibition of human NCI-H1563 cell growth in a cell viability assay.

RH-1 = format: functional, cell-based, Homo sapiens;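 also: growth inhibition of human RH-1 cells, read out with a cell viability assay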
Description: SANGER: Inhibition of human RH-1 cell growth in a cell viability assay.

ACN = format: functional, cell-based, Homo sapiens;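 also: growth inhibition of the human ACN cell line, read out via cell viability testing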
Description: SANGER: Inhibition of human ACN cell growth in a cell viability assay.

BE-13 = format: functional, cell-based; conditions: Homo sapiens;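 also: growth inhibition of human BE-13 cells, measured with a cell viability assay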
Description: SANGER: Inhibition of human BE-13 cell growth in a cell viability assay.

NB12 = format: functional, cell-based, Homo sapiens;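 also: growth inhibition of human NB12 cells, read out by a cell viability assay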
Description: SANGER: Inhibition of human NB12 cell growth in a cell viability assay.

DBTRG-05MG = format: functional, cell-based, Homo sapiens;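 also: cell viability assay measuring growth inhibition of human DBTRG-05MG cells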
Description: SANGER: Inhibition of human DBTRG-05MG cell growth in a cell viability assay.

TGBC24TKB = format: functional, cell-based, Homo sapiens;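 also: growth inhibition of human TGBC24TKB cells, read out with a cell viability assay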
Description: SANGER: Inhibition of human TGBC24TKB cell growth in a cell viability assay.

NUGC-3 = format: functional, cell-based, Homo sapiens;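 also: growth inhibition of human NUGC-3 cells, read out with a cell viability assay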
Description: SANGER: Inhibition of human NUGC-3 cell growth in a cell viability assay.

ES5 = format: functional, cell-based, Homo sapiens;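 also: growth inhibition of human ES5 cells, read out by a cell viability assay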
Description: SANGER: Inhibition of human ES5 cell growth in a cell viability assay.

CAMA-1 = format: functional, cell-based, Homo sapiens;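 also: growth inhibition of CAMA-1 cells, read out with a cell viability assay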
Description: SANGER: Inhibition of human CAMA-1 cell growth in a cell viability assay.

Capan-2 = format: functional, cell-based, Homo sapiens;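 also: Capan-2 cell growth inhibition, read out with a viability assay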
Description: SANGER: Inhibition of human Capan-2 cell growth in a cell viability assay.

SK-PN-DW = format: functional, cell-based; conditions: Homo sapiens;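 also: growth inhibition measured with a viability assay on these cells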
Description: SANGER: Inhibition of human SK-PN-DW cell growth in a cell viability assay.

A2780 = format: functional, cell-based, Homo sapiens;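 also: growth inhibition of A2780 cells, read out with a cell viability assay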
Description: SANGER: Inhibition of human A2780 cell growth in a cell viability assay.

LB771-HNC = format: functional, cell-based, Homo sapiens;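 also: growth inhibition of LB771-HNC human cells, read out with a cell viability assay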
Description: SANGER: Inhibition of human LB771-HNC cell growth in a cell viability assay.

ES4 = format: functional, cell-based, Homo sapiens;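 also: growth inhibition of human ES4 cells, read out by a cell viability assay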
Description: SANGER: Inhibition of human ES4 cell growth in a cell viability assay.

DoTc2-4510 = format: functional, cell-based, Homo sapiens
HCC1569 = format: functional, cell-based, Homo sapiens;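 also: growth inhibition of human HCC1569 cells, read out with a cell viability assay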
Description: SANGER: Inhibition of human HCC1569 cell growth in a cell viability assay.

MV4-11 = format: functional, cell-based, MV-4-11; conditions: Homo sapiens;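 also: cell viability readout measuring growth inhibition of human MV-4-11 cells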
Description: SANGER: Inhibition of human MV-4-11 cell growth in a cell viability assay.

TYK-nu = format: functional, cell-based, Homo sapiens;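 also: growth inhibition of human TYK-nu cells, read out by a cell viability assay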
Description: SANGER: Inhibition of human TYK-nu cell growth in a cell viability assay.

NB14 = format: functional, cell-based; conditions: Homo sapiens;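 also: growth inhibition of NB14 cells measured with a cell viability assay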
Description: SANGER: Inhibition of human NB14 cell growth in a cell viability assay.

TE-11 = format: functional, cell-based, Homo sapiens;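 also: growth inhibition of human TE-11 cells, read out by a cell viability assay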
Description: SANGER: Inhibition of human TE-11 cell growth in a cell viability assay.

NB5 = format: functional, cell-based, Homo sapiens;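 also: growth inhibition of NB5 cells, read out as cell viability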
Description: SANGER: Inhibition of human NB5 cell growth in a cell viability assay.

U2OS = format: functional, cell-based, Homo sapiens, U-2-OS;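 also: growth inhibition of human U-2-OS cells, determined with a cell viability assay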
Description: SANGER: Inhibition of human U-2-OS cell growth in a cell viability assay.

PANC-08-13 = format: functional, cell-based, Homo sapiens;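 also: cell growth inhibition, measured with a cell viability assay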
Description: SANGER: Inhibition of human PANC-08-13 cell growth in a cell viability assay.

GOTO = format: functional, cell-based, Homo sapiens;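 also: growth inhibition of GOTO cells, read out by a cell viability assay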
Description: SANGER: Inhibition of human GOTO cell growth in a cell viability assay.

LB373-MEL-D = format: functional, cell-based, Homo sapiens; conditions: lb373-mel-d;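 also: growth inhibition of the cell line, read out in a cell viability assay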
Description: SANGER: Inhibition of human LB373-MEL-D cell growth in a cell viability assay.

MKN-45 = format: functional, cell-based, Homo sapiens;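 also: growth inhibition of human MKN-45 cells, measured with a cell viability assay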
Description: SANGER: Inhibition of human MKN45 cell growth in a cell viability assay.

HC-1 = format: functional, cell-based; conditions: Homo sapiens;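 also: growth inhibition of HC-1 cells measured by a cell viability assay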
Description: SANGER: Inhibition of human HC-1 cell growth in a cell viability assay.

Molecule `COc1cc(F)c(F)c(Nc2ccc(I)cc2F)c1NS(=O)(=O)C1(CC(O)CO)CC1` (centres undefined) has an IC50 (ETK-1; Homo sapiens, ETK-1) of 4.24 µM, an IC50 (SK-OV-3; Homo sapiens, SK-OV-3) greater than 5 µM and an IC50 (COLO-829; Homo sapiens, COLO-829) of 1.73 µM. The IC50 (EFO-27; Homo sapiens, EFO-27) was 0.962 µM, the IC50 (Ramos-2G6-4C10) was greater than 5 µM and the IC50 (Ca-Ski) was greater than 5 µM. For the same molecule, the IC50 (HCC2157) was greater than 5 µM, the IC50 (HCC70; Homo sapiens, HCC70) was greater than 5 µM and the IC50 (TE-6; Homo sapiens, TE-6) was greater than 5 µM. For the same molecule, the IC50 (A3-KAW) was greater than 5 µM, the IC50 (D283 Med; Homo sapiens, D283 Med) was greater than 5 µM and the IC50 (BHT-101; Homo sapiens, BHT-101) was 0.106 µM. For the same molecule, the IC50 (DMS-273; Homo sapiens, DMS-273) was greater than 5 µM, the IC50 (VMRC-RCZ) was greater than 5 µM and the IC50 (LK-2; Homo sapiens, LK-2) was greater than 5 µM. The IC50 (SCC-4; Homo sapiens, SCC-4) was 5 µM, the IC50 (WM-115; Homo sapiens, WM-115) was 0.421 µM and the IC50 (KYSE-450) was greater than 5 µM. For the same molecule, the IC50 (KOSC-2; Homo sapiens, KOSC-2) was 1.68 µM, the IC50 (NCI-H520; Homo sapiens, NCI-H520) was greater than 5 µM and the IC50 (NCI-H2126; Homo sapiens, NCI-H2126) was greater than 5 µM. It also gave an IC50 (HH) greater than 5 µM, an IC50 (NH-12; Homo sapiens, NH-12) of 1.2 µM and an IC50 (SAS; Homo sapiens, SAS) of 3.94 µM. The IC50 (NCI-H1563; Homo sapiens, NCI-H1563) was 4.47 µM, the IC50 (RH-1; Homo sapiens, RH-1) was greater than 5 µM and the IC50 (ACN; Homo sapiens, ACN) was 0.0651 µM. It also gave an IC50 (BE-13) greater than 5 µM, an IC50 (NB12; Homo sapiens, NB12) greater than 5 µM and an IC50 (DBTRG-05MG; Homo sapiens, DBTRG-05MG) greater than 5 µM. For the same molecule, the IC50 (TGBC24TKB; Homo sapiens, TGBC24TKB) was greater than 5 µM, the IC50 (NUGC-3; Homo sapiens, NUGC-3) was 4.34 µM and the IC50 (ES5; Homo sapiens, ES5) was greater than 5 µM. It also gave an IC50 (CAMA-1; Homo sapiens, CAMA-1) greater than 5 µM, an IC50 (Capan-2; Homo sapiens, Capan-2) greater than 5 µM and an IC50 (SK-PN-DW) greater than 5 µM. For the same molecule, the IC50 (A2780; Homo sapiens, A2780) was greater than 5 µM, the IC50 (LB771-HNC; Homo sapiens, LB771-HNC) was greater than 5 µM and the IC50 (ES4; Homo sapiens, ES4) was greater than 5 µM. It also gave an IC50 (DoTc2-4510; Homo sapiens, DoTc2-4510) greater than 5 µM, an IC50 (HCC1569; Homo sapiens, HCC1569) greater than 5 µM and an IC50 (MV4-11) of 0.812 µM. It also gave an IC50 (TYK-nu; Homo sapiens, TYK-nu) of 0.441 µM, an IC50 (NB14) greater than 5 µM and an IC50 (TE-11; Homo sapiens, TE-11) greater than 5 µM. It also gave an IC50 (NB5; Homo sapiens, NB5) of 0.978 µM, an IC50 (U2OS; Homo sapiens, U2OS) of 2.75 µM and an IC50 (PANC-08-13; Homo sapiens, PANC-08-13) greater than 5 µM. For the same molecule, the IC50 (GOTO; Homo sapiens, GOTO) was greater than 5 µM.

In the case of `Cc1cc([C@@H](C)Nc2ccccc2C(=O)O)c2nc(N3CCOCC3)cc(=O)n2c1` [AZD-6482], the IC50 (ETK-1; etk-1) is reported as greater than 5.12 µM, the IC50 (SK-OV-3; sk-ov-3) is reported as 1.2 µM and 4.67 µM and the IC50 (COLO-829; colo-829) is reported as greater than 5.12 µM. The IC50 (EFO-27; Homo sapiens, EFO-27) was greater than 5.12 µM, the IC50 (EFO-27; efo-27) was greater than 5.12 µM and the IC50 (LB373-MEL-D) was greater than 5.12 µM. It also gave an IC50 (Ramos-2G6-4C10) greater than 5.12 µM, an IC50 (Ca-Ski) of 1.93 µM and an IC50 (HCC2157) of 3.96 µM. For the same molecule, the IC50 (HCC70; hcc70) was 1.66 µM and > 5.12 µM, the IC50 (TE-6; te-6) was greater than 5.12 µM and the IC50 (A3-KAW) was greater than 5.12 µM. For the same molecule, the IC50 (D283 Med; d283 med) was greater than 5.12 µM, the IC50 (BHT-101; bht-101) was > 5.12 µM and 1.16 µM and the IC50 (DMS-273; Homo sapiens, DMS-273) was 4.83 µM. The IC50 (DMS-273; dms-273) was 2.48 µM, the IC50 (LK-2; lk-2) was greater than 5.12 µM and the IC50 (SCC-4; scc-4) was greater than 5.12 µM. For the same molecule, the IC50 (WM-115; wm-115) was greater than 5.12 µM, the IC50 (KYSE-450) was greater than 5.12 µM and the IC50 (KOSC-2; kosc-2) was greater than 5.12 µM. It also gave an IC50 (NCI-H520; Homo sapiens, NCI-H520) of 4.21 µM, an IC50 (NCI-H520; nci-h520) greater than 5.12 µM and an IC50 (NCI-H2126; nci-h2126) greater than 5.12 µM. For the same molecule, the IC50 (HH) was 0.962 µM, the IC50 (NH-12; Homo sapiens, NH-12) was greater than 5.12 µM and the IC50 (NH-12; nh-12) was greater than 5.12 µM. For the same molecule, the IC50 (SAS; sas) was greater than 5.12 µM, the IC50 (NCI-H1563; Homo sapiens, NCI-H1563) was greater than 5.12 µM and the IC50 (NCI-H1563; nci-h1563) was greater than 5.12 µM. It also gave an IC50 (MKN-45; Homo sapiens, MKN-45) greater than 5.12 µM, an IC50 (MKN-45; mkn-45) greater than 5.12 µM and an IC50 (RH-1; rh-1) greater than 5.12 µM. The IC50 (ACN; Homo sapiens, ACN) was greater than 5.12 µM, the IC50 (ACN; acn) was greater than 5.12 µM and the IC50 (BE-13) was greater than 5.12 µM. For the same molecule, the IC50 (NB12; nb12) was 1.55 µM and > 5.12 µM, the IC50 (DBTRG-05MG; dbtrg-05mg) was greater than 5.12 µM and the IC50 (HC-1) was greater than 5.12 µM. It also gave an IC50 (TGBC24TKB; tgbc24tkb) greater than 5.12 µM, an IC50 (NUGC-3; nugc-3) greater than 5.12 µM and an IC50 (ES5; es5) greater than 5.12 µM. The IC50 (CAMA-1; cama-1) was 1.2 µM and > 5.12 µM, the IC50 (Capan-2; capan-2) was greater than 5.12 µM and the IC50 (SK-PN-DW) was greater than 5.12 µM. The IC50 (A2780; a2780) was > 5.12 µM and 2.56 µM, the IC50 (LB771-HNC; Homo sapiens, LB771-HNC) was greater than 5.12 µM and the IC50 (LB771-HNC; lb771-hnc) was greater than 5.12 µM. The IC50 (ES4; es4) was greater than 5.12 µM, the IC50 (DoTc2-4510; dotc2-4510) was greater than 5.12 µM and the IC50 (HCC1569; hcc1569) was 3.29 µM and > 5.12 µM. For the same molecule, the IC50 (MV4-11) was 2.66 µM, the IC50 (TYK-nu; tyk-nu) was greater than 5.12 µM and the IC50 (NB14) was greater than 5.12 µM. For the same molecule, the IC50 (TE-11; te-11) was greater than 5.12 µM, the IC50 (NB5; nb5) was greater than 5.12 µM and the IC50 (U2OS; u-2-os) was > 5.12 µM and 4.6 µM. For the same molecule, the IC50 (PANC-08-13; panc-08-13) was greater than 5.12 µM, the IC50 (GOTO; Homo sapiens, GOTO) was greater than 5.12 µM and the IC50 (GOTO; goto) was greater than 5.12 µM.
